Columns and labels:
RKO-p53 cells = assay: Apoptosis by merocyanine 540 multiparameter flow cytometry; type: cell-based, human
Description: The effect of p53 function on survival after FAS inhibition was investigated by comparing two pairs of isogenic cell lines with wild-type and altered p53 function. RKO cells were rendered p53-mutant by stable transfection with a dominant-negative mutant p53 gene (RKO-p53); the human breast carcinoma cell line MCF7 was rendered p53-deficient by constitutive expression of the human papilloma virus 16 E6 gene (MCF7-E6) (Fan, S., Smith, M. L., Rivet, D. J., 2nd, Duba, D., Zhan, Q., Kohn, K. W., Fornace, A. J., Jr., and PM, O. C., “Disruption of p53 Function Sensitizes Breast Cancer MCF-7 Cells to Cisplatin and Pentoxifylline,” Cancer Research, 55:1649-1654, (1995)).
Cells were exposed to cerulenin or C-75 for the indicated doses and time intervals, then detached from plastic with trypsin for flow cytometry analysis. Apoptosis was measured by multiparameter flow cytometry using a FACStar^Plus flow cytometer equipped with argon and krypton lasers (Becton Dickinson). […] Merocyanine 540-positive cells were identified using 488-nm excitation from an argon laser and a 575-nm DF26 bandpass filter for collection of events with increased red fluorescence. Data were collected and analyzed using CellQuest software (Becton Dickinson). […]

[1] = test system: cyclin A-associated kinase activity; assay: Immunocomplex-kinase assay after drug exposure of RKO cells, cyclin A; type: cell-based, human; conditions: 10 μg/ml, later time points (16 and 24 h)
Description: The effect of FAS inhibitors on the activity of cyclin/cdk complexes in RKO cells was determined in a time course analysis. After RKO cells were exposed to FAS inhibitors for the indicated time periods, cyclin A- and cyclin B 1-associated kinase activities were determined by an immunocomplex-kinase assay.
Five×10^6 RKO cells per 100-mm plate were treated with 10 μg/ml cerulenin or C-75 for the indicated time intervals. The control cells received equivalent amounts of DMSO. After drug treatment, the plates were washed once and lysed with immunoprecipitation (IP) buffer (150 mM Tris, pH 7.4, 150 mM NaCl, 1% Triton X-100, 0.5% NP-40, 1 mM ethyleneglyco-bis-tetraacetic acid, 0.2 mM sodium vanadate, and 0.2 mM phenylmethylsulfonyl fluoride). Protein concentration was measured using the BCA Protein Assay Kit (Pierce). One hundred μg of protein from each sample was incubated at 4° C. for 1 h with 1 μg of primary antibody (anti-human cyclin A rabbit polyclonal antibody or anti-human cyclin B 1 monoclonal antibody, Santa Cruz) and then overnight after addition of Protein A or protein G-Sepharose (Santa Cruz). […] Samples were resolved by electrophoresis through 12% SDS-polyacrylamide gels and quantitated on a Storm 820 system (Molecular Dynamics). […]

[2] = test system: RKO colon carcinoma cells; assay: DNA content of treated RKO cells by flow cytometry (cell cycle distribution); type: cell-based, human; conditions: 10 μg/ml; for cell cycle distribution (DNA content), early time points: 5 and 8 h
Description: Cells were cultured in DMEM with 10% fetal bovine serum (Hyclone). Cells were screened periodically for mycoplasma contamination (Gen-probe). Cerulenin (Sigma) C-75 and TOFA, dissolved in DMSO, were added from 5 mg/ml stock solutions; the final concentration of DMSO in cultures was at or below 0.2%. Cells were exposed to cerulenin or C-75 for the indicated doses and time intervals, then detached from plastic with trypsin for flow cytometry analysis. DNA content was measured by multiparameter flow cytometry using a FACStar^Plus flow cytometer equipped with argon and krypton lasers (Becton Dickinson).

RKO cells = assay: BrdU pulse/chase cell cycle progression by laser scanning cytometry; type: cell-based, human; conditions: 10 μg/ml, chase 4-24 h
Description: A similar experiment measured cell cycle progression by pulse/chase labeling with bromodeoxyuridine (BrdU, FIG. 2). The BrdU-positive S-phase fraction at time zero progresses through the cell cycle at later time points. B. The progress of BrdU pulse-labeled RKO cells through the cell cycle was monitored over 24 h without inhibition of FAS, or during exposure to cerulenin (10 μg/ml) or C-75 (10 μg/ml).
Dual-parameter detection of Bromodeoxyuridine (BrdU) labeling and DNA content was performed using a laser scanning cytometer (Compucyte Corp.). Cell cultures were pulse-labeled for 20 min with 10 μM BrdU, and chased for the indicated times in the absence or presence of drug, then detached from plastic with trypsin, ethanol-fixed and applied to glass slides. Cells were subjected to standard heat-induced epitope retrieval (DAKO) before staining with anti-BrdU antibody (DAKO) and FITC-conjugated goat anti-mouse antibody (CALTAG, DAKO Autostainer™). DNA content was assessed after staining with 0.5% propidium iodide. Data were collected and analyzed using WinCyte software (Compucyte Corp.).
A 20-min exposure of proliferating cells to BrdU labeled the S-phase population at time zero. Chase samples were collected at 4, 8, 16 and 24 h. In control cultures (FIG. 2A), the BrdU-labeled population progressed through G2/M, first reappearing in the G1 population in the 8 h chase sample. […]

MCF7 breast cancer cells = assay: Alkaline single cell gel electrophoresis (comet assay), MCF7; type: cell-based, human; conditions: 3 h, doses bracketing 75% survival at 24 h
Description: This assay detects DNA strand breaks, and a spectrum of alkali-labile DNA damage at low levels (Singh, N. P., McCoy, M. T., Tice, R. R., and Schneider, E. L., “A simple Technique for Quantitation of Low Levels of DNA Damage in Individual Cells,” Experimental Cell Research, 175:184-191, (1988); Plappert, U., Raddatz, K., Roth, S., and Fliedner, T. M., “DNA-Damage Detection in Man After Radiation Exposure—the Comet Assay—Its Possible Application for Human Biomonitoring,” Stem Cells, 13 Supplement 1:215-222, (1995)).
Cerulenin- or C-75-treated MCF7 breast carcinoma cells were subjected to alkaline single cell gel electrophoresis (comet assay). MCF7 breast cancer cells were treated with cerulenin or C-75 for 3 h at doses bracketing 75% survival at 24 h. All experiments were repeated three times and duplicate slides from each experiment were prepared and scored. […] Neutralized, dehydrated slides were stained with ethidium bromide (2 ng/ml) and comets scored under a Nikon fluorescence microscope (with TRITC filters) coupled to a KOMET 4.0 software (Kinetic Imaging Ltd).
Olive tail moment indicates electrophoretic mobility of DNA induced by DNA damage. […] One hundred consecutive cells were scored from the middle of each slide, and the means calculated. The final results were expressed as the (mean of the individual means)±(standard deviation of the means). […]

p21WAF1/CIP1 = assay: Immunoblot of p21 protein in RKO cells; type: cell-based, human; conditions: 10 μg/ml, 16 and 24 h
Description: (§1) Accumulation of p53 protein, and the p53-regulated cdk inhibitor p21WAF1/CIP1, were assayed by immunoblotting in a parallel time course after inhibition of FAS (FIG. 4). Cells were treated with cerulenin (10 μg/ml) (A) or C-75 (10 μg/ml) (B) for the stated exposure times, and analyzed by immunoblotting for p53 and p21 protein content, with actin as an internal control. One million cells per 60-mm plate were treated with 10 μg/ml cerulenin or C-75 in duplicate for the indicated time intervals; control cells received equivalent amounts of DMSO. After drug treatment, cells were lysed with 200 μl Laemmli sample buffer and boiled. Ten μl of each lysate per lane was separated by SDS-PAGE, transferred to nitrocellulose, and exposed to antibodies against p53 (Pab1801, Oncogene Research Products), p21 (6B6, PharMingen) or actin (I-19, Santa Cruz), followed by horseradish peroxidase-conjugated goat anti-mouse or rabbit anti-goat antibody (Pierce), enhanced chemiluminescence (Amersham) and autoradiography.

p53 = assay: Immunoblot of p53 protein in RKO cells; type: cell-based, human; conditions: 10 μg/ml, 16 and 24 h
Description: as §1

fatty acid synthesis = conditions: cited from earlier work

Structure (SMILES)	effect of pretreatment on FAS inhibitor mediated apoptosis (RKO-p53 cells; RKO-p53 cells, TOFA pretreatment)	kinase activity associated with immunoprecipitated cyclin A complexes, later time points [1]	apoptosis (MC540) in p53-deficient cells compared to parent line (RKO-p53 cells; RKO-p53 vs parent RKO, 24 h exposure, 5 or 10 μg/ml)	cell cycle distribution (DNA content), early time points [2]	cell cycle distribution (DNA content), late time points ([2]; 16 and 24 h)	cell cycle progression of BrdU pulse-labeled cells (RKO cells)	DNA damage, olive tail moment (MCF7 breast cancer cells)	p21 protein level (p21WAF1/CIP1)	p53 protein level (p53)	inhibitory effects on fatty acid synthesis (fatty acid synthesis)
CCCCCCCCCCCCCCOc1ccc(C(=O)O)o1 [TOFA, 5-(tetradecyloxy)-2-furoic acid]	did rescue FAS inhibitor mediated apoptosis	–	–	–	–	–	–	–	–	–
C/C=C/C/C=C/CCC(=O)[C@H]1O[C@H]1C(N)=O [cerulenin, (2R, 3S)-2,3-epoxy-4-oxo-7,10-trans,trans-dodecadienamide]	–	increased moderately	large, dose-dependent increase in apoptosis	redistribution of cells into S phase and G2/M	S-phase fraction decreased substantially, with a redistribution of cells into G1 and G2/M	substantial delays in cell cycle progression	Neither cerulenin nor C-75 induced olive tail moments over background values	induced accumulation	induced accumulation	–
C=C1C(=O)OC(CCCCCCCC)C1C(=O)O (stereo not shown) [C-75]	–	increased moderately	–	This effect was characteristic of both cerulenin and C-75 treatment	–	exhibited a similar response	Neither cerulenin nor C-75 induced olive tail moments over background values	induced accumulation	induced accumulation	comparable to those seen with cerulenin
